Experimental findings from article PMC12040169 (PLOS Biology, 2025) are described below.

The nature of the data set: in vitro. The note with it: human, hela cells, % viability.

In general, viability refers to a read-out of living cells in per cent, often relative to untreated cells. `O=C(CCn1c(=O)oc2ccccc21)Nc1ccc(S(=O)(=O)N2CCCCC2)cc1` [CBK268365]: the viability at 28.5 h, 10 µM stood at 82%. For `COCCNc1nccnc1-c1cccc(C(=O)N2CCN(C)CC2)c1` [CBK036864], the viability at 28.5 h, 10 µM worked out at 99.9%. The same measure for `O=C(NCCc1c[nH]cn1)Nc1cccc(C(F)(F)F)c1` [CBK269822]: 105%. `Cc1oc2nc(CSc3ccc4ccccc4c3)[nH]c(=O)c2c1C(=O)O` [CBK296645]: the viability at 28.5 h, 10 µM was 92.4%. As for `NC(=O)c1nc(-c2ccccc2)nc2c1[nH]c(=O)n2-c1cccc(Cl)c1` [CBK287544], the viability at 28.5 h, 10 µM is 104%. For the compound `O=C(Cn1ccc(=O)[nH]c1=O)NCc1cccnc1OC1CCCC1` [CBK305582], the viability at 28.5 h, 10 µM turned out to be 94.9%. Turning to `O=C(Cc1ccc(Br)cc1)Nc1cc(C(=O)O)cc(C(=O)O)c1` [CBK268228], the viability at 28.5 h, 10 µM was 88.8%. In the case of `COc1ccc(N2CCN(c3cc(-c4cc(C(F)(F)F)cc(C(F)(F)F)c4)ncn3)CC2)cc1OC` [CBK091020] it was 96.1%. With `CCCc1[nH]ncc1C(=O)N1CCN(c2ccnc(N(C)C)n2)CC1` [CBK305406], the viability at 28.5 h, 10 µM is 96.4%. Regarding `NC(=O)C1CCN(CC(O)COc2ccc(-c3ccccc3)cc2)CC1` (stereo not drawn) [CBK269528], the viability at 28.5 h, 10 µM turned out to be 89.9%. In the case of `OC(CN1CCC(O)(c2ccccc2F)CC1)c1ccc(F)cc1` (stereo not drawn) [CBK282492] it was 87.2%; in that of `CNC(=O)C1(Cc2ccccc2-c2ccccc2)CCN(C(=O)CCC2CCCC2)CC1` [CBK285696], 89.4%.

As for `FC(F)(F)c1ccccc1NC(=S)Nc1ncn(Cc2ccc(Cl)c(Cl)c2)n1` [CBK267130], the viability at 28.5 h, 10 µM worked out at 87.1%. Take `Cc1ccc(NC(=O)NC(=O)C2CCN(CCCc3ccc(F)cc3)CC2)cc1Cl` [CBK035057]: the viability at 28.5 h, 10 µM is 94.2%. In the case of `O=C(c1c[nH]c(=O)c(Cl)c1)N1CCCCC1CN1CCOCC1` (stereo not drawn) [CBK304416] it was 119%.

Turning to `COc1ccc(Nc2ccc(-c3cccc(OC(F)(F)F)c3)cn2)cn1` [CBK037022], the viability at 28.5 h, 10 µM is 100%. As for `COc1ccc(C)cc1S(=O)(=O)N(C)CC(=O)Nc1cccc(SC)c1` [CBK267510], the viability at 28.5 h, 10 µM is 101%. As for `COc1ccc(CN2CCCN(c3cc(OC4CCCCC4)ncn3)CC2)cc1` [CBK083278T], the viability at 28.5 h, 10 µM was determined as 107%.

As for `CC(C)(O)C#Cc1ccc(C(=O)NC(CSCc2ccccc2)C(=O)O)s1` (stereo not drawn) [CBK267705], the viability at 28.5 h, 10 µM amounted to 98.4%. The same measure for `O=C(CN1CCN(c2ncccn2)CC1)N1N=CCC1c1ccccc1` (stereo not drawn) [CBK270184]: 89.4%; for `COc1ccc(C(c2ccccc2C)N(C)C(=O)C2CCNCC2)cn1` (stereo not drawn) [CBK074124]: 100%.

Turning to `CC(C)(CO)CNc1nc(-c2ccc(F)c(Cl)c2)cnc1N` [CBK063484], the viability at 28.5 h, 10 µM came out at 102%. Take `O=S(=O)(c1ccc(F)cc1F)n1ccc2c(N3CCNCC3)nccc21` [CBK059061C]: the viability at 28.5 h, 10 µM came to 89.7%.

Consider `COc1cc(OC)nc(C(NC(=O)C2CCN(C(=O)c3ccno3)CC2)c2ccc(Cl)cc2)n1` (stereo not drawn) [CBK060169], for which the viability at 28.5 h, 10 µM is 115%. As for `COc1cccc(C(=O)N2CCC(Cc3ccccc3-c3ccccc3)(C(N)=O)CC2)c1` [CBK285729], the viability at 28.5 h, 10 µM worked out at 93.6%. In the case of `Cc1nnc(SCC(=O)NCCc2ccccc2)nc1O` [CBK268045] it was 92%; in that of `COC(=O)c1sccc1NC(=O)c1ccccc1Cl` [CBK066860], 65.5%. The same measure for `O=C(c1ccccc1CCc1ccccc1)N1CCN(Cc2ccc3c(c2)OCO3)CC1` [CBK268623]: 120%.

With `CC(=O)NCc1cccc(-c2cc(C(=O)NCCc3cccc(OC(F)(F)F)c3)cnc2-c2ccc(Cl)cc2)c1` [CBK164414], the viability at 28.5 h, 10 µM worked out at 84.7%. The same measure for `Brc1c(OCc2ccccc2)ccc2[nH]ccc12` [CBK160845]: 96.5%; for `Cc1nc(C2CCN(C(=O)c3ccncc3)CC2)c2sccn12` [CBK282235]: 99.9%; for `CCOC(=O)C1=C(C(=O)OCC)SC(=C2C(=S)C(C)(C)N(C(=O)c3ccc4ccccc4c3)c3ccccc32)S1` [CBK261643]: 103%. For `CCCn1ncc(CN[C@@H]2CCC[C@H]2Cc2cc(C)no2)c1C` [CBK282948], the viability at 28.5 h, 10 µM came to 88.7%. The same measure for `CCCNC(=O)Nc1ccc(Cl)c(C(=O)O)c1` [CBK287009]: 85.6%; for `Cc1cccc(-c2ncc(NC(=O)CCc3cccc(Cl)c3)nc2-c2cccnc2)c1` [CBK037201]: 97.2%; for `O=C1NC(=O)C(c2ccccc2)(c2ccccc2)N1` [CBK005292]: 108%. In the case of `COCCN(Cc1cnn(C)c1)C(=O)NCc1nc2c(C)cccc2o1` [CBK307642] it was 86.8%. With `O=C(CSc1nnc(Cc2cccc3ccccc23)n1-c1ccccc1)N1CCc2ccccc21` [CBK266697], the viability at 28.5 h, 10 µM worked out at 99.1%. Take `COc1ccc(S(=O)(=O)N(C)CC(=O)O)cc1` [CBK287086]: the viability at 28.5 h, 10 µM amounted to 85.9%. As for `O=C1N=C(NCC2CCCCC2)SC1CC(=O)N1Cc2ccccc2C1` (stereo not drawn) [CBK067016], the viability at 28.5 h, 10 µM worked out at 85.1%. Take `CC(NCCN1CCOCC1)=C1C(=O)c2ccccc2C1=O` [CBK262691]: the viability at 28.5 h, 10 µM stood at 96.1%. The same measure for `CCOc1cc(-c2cc(C(=O)O)c3ccccc3n2)ccc1O` [CBK266848]: 103%; for `CCOc1ccc2nc(SCC(=O)Nc3c(C)n(C)n(-c4ccccc4)c3=O)sc2c1` [CBK267229]: 95.5%. The same measure for `Cc1nc(C)c(C(=O)NCCN2CCCC2=O)s1` [CBK282222]: 84.2%. In the case of `Cc1cc(Cl)c(OCCNCCN)c(Br)c1` [CBK265079], the viability at 28.5 h, 10 µM was 91.5%. The same measure for `CNC(=O)c1ccc(-c2ccc(C)c(C)c2)nc1NCCOC` [CBK105999]: 96.6%. Turning to `COc1cc(-c2nc(C(C)=O)c(C)n2O)cc(OC)c1OC` [CBK270083], the viability at 28.5 h, 10 µM turned out to be 95.6%. As to `O=C(Cc1c(O)c2ccccc2[nH]c1=O)NCc1ccccc1Cl` [CBK160320], the viability at 28.5 h, 10 µM came out at 88%. For the compound `CCN(C)CC(=O)N1CCC(Oc2cc(C)ccc2F)(C(=O)O)CC1` [CBK307020], the viability at 28.5 h, 10 µM worked out at 105%. Regarding `CCc1n[nH]c(C(=O)N2CCc3ncc(Cl)cc3C2)c1C` [CBK284856], the viability at 28.5 h, 10 µM worked out at 92.8%.

In the case of `Cc1nn(C)c(C)c1CN(C(=O)c1ccc(C)n(C)c1=O)C1CC1` [CBK281450], the viability at 28.5 h, 10 µM amounted to 105%.

For the compound `CC(C)(CN)CN(Cc1cccc2ccccc12)C(=O)NC1C[C@H]1c1ccccc1` (stereo partly drawn) [CBK000490C], the viability at 28.5 h, 10 µM is 94.7%.

As for `COc1ccc(-c2cc(C(=O)Nc3ccc(F)c(Cl)c3)cnc2-c2cccc(C)c2)cc1` [CBK037488], the viability at 28.5 h, 10 µM is 93.3%. Turning to `Cc1ccc(-c2nccnc2OC2CCCCC2)c(C)c1` [CBK106983], the viability at 28.5 h, 10 µM worked out at 94%. Consider `Cc1ccnc(SCC(=O)Nc2sc3c(c2C(=O)Nc2ccccc2)CCCC3)n1` [CBK266348], for which the viability at 28.5 h, 10 µM came out at 106%. In the case of `CC(=O)NCC1CC(c2ccc(C3=CCN(C(C)=O)CC3)cc2)=NO1` (stereo not drawn) [CBK010245] it was 86.8%; in that of `Cc1nc(O)c2c3c(sc2n1)CCCC3` [CBK016462], 83.1%.
